Test results: patent US12655150B2 (Cedilla Therapeutics, Inc., priority 2021, dated 2026)

tested on: NCI-H226; experiment: 72H TEAD Proliferation Assay (Cell Titer Glo 2.0); format: cell-based; conditions: Homo sapiens, NCI-H226, 72 h, CTG 2.0, cell line not given (NCI-H226 responsive, NCI-H28 non-responsive)
Experimental: 72H TEAD Proliferation Assay.
The effect of TEAD inhibition on cell proliferation was assayed using Cell Titer Glo (CTG) 2.0 to measure response in mesothelioma cell lines NCI-H226 (ATCC, #CRL-5826) and NCI-H28 (ATCC, #CRL-5820).
The 72H TEAD Proliferation assay utilizes Cell Titer-Glo 2.0 (Promega, #G9243) to measure the proliferation of cells in the presence or absence of compound. Cell Titer-Glo 2.0 determines the amount of viable cells by quantifying ATP (an indication of metabolically active cells). It utilizes the conversion of Luciferin to Oxyluciferin and a luminescent signal with the use of ATP to report the quantity of viable cells in culture. Within cells that are continually growing, ATP is being synthesized to meet their metabolic demands, meanwhile the opposite is true for cells that are dying or slowing down their proliferation and either no longer using ATP or are using less, respectively. The NF2-deficient NCI-H226 has been genetically validated as a cell line that is sensitive to TEAD inhibition. The NF2-wild type NCI-H28 has been genetically validated as a cell line that is not sensitive to TEAD inhibition and grows independently of TEAD activity.
Compounds were screened against the responsive NCI-H226 cell line to assess the compounds' ability to inhibit TEAD and cell growth. Compounds were also screened against the non-responsive NCI-H28 cell line to ascertain whether the inhibition of cell growth was due to inhibition of the target TEAD or whether the inhibition was due to off-target cytotoxicity.
• 1) Assay ready plates (ARPs) were prepared by Echo acoustic liquid handler. […] After CTG addition, plates were placed on shaker at 800 RPM for 15 minutes at room temperature and kept in the dark. Luminescence was measured using EnVision multilabel plate reader with ultra-sensitive detection module. • 9) Data Analysis: First background luminescence (no CTG wells) was subtracted from luminescence reading of all wells, then TO luminescence was subtracted from T72 luminescence. To compare anti-proliferative effect of compounds, GI50 was obtained by fitting dose response curves with nonlinear regression curve fit.

`O=C(O)c1ccc2c(c1)nc(C1CCOCC1)c1nccn12` [I-69, 4-(Tetrahydro-2H-pyran-4-yl)imidazo[1,2-a]quinoxaline-7-carboxylic acid] and `O=C(O)c1ccc2c(c1)nc(N1CCOCC1)c1cccn12` [I-7, 4-Morpholinopyrrolo[1,2-a]quinoxaline-7-carboxylic acid] cannot be ordered by GI50: greater than 10000 nM for the first, greater than 10000 nM for the second.

`CC(C)(C)c1ccc(-c2nc3cc(C(=O)O)cnc3n3cccc23)cc1` [I-139, 6-(4-(tert-Butyl)phenyl)pyrido[3,2-e]pyrrolo[1,2-a]pyrazine-3-carboxylic acid] and `CC(C)(C)c1ccc(-c2nc3cc(C(N)=O)ccc3n3cccc23)cc1` [I-166, 4-(4-(tert-butyl)phenyl)pyrrolo[1,2-a]quinoxaline-7-carboxamide] cannot be ordered by GI50: no more than 1000 nM for the first, no more than 1000 nM for the second.

`CC(NC(=O)N1CCc2c(cccc2-c2ccc(C(F)(F)F)cc2)C1)c1ccccn1` (stereo not drawn) [I-179, N-(1-(pyridin-2-yl)ethyl)-5-(4-(trifluoromethyl)phenyl)-3,4-dihydroisoquinoline-2(1H)-carboxamide] and `COc1cc(-c2ccc(C(F)(F)F)cc2)nc2cc(C(=O)N[C@@H](C)c3cccc(O)c3)ccc12` [I-349, (S)—N-(1-(3-hydroxyphenyl)ethyl)-4-methoxy-2-(4-(trifluoromethyl)phenyl)quinoline-7-carboxamide] cannot be ordered by GI50: no more than 1000 nM for the first, no more than 1000 nM for the second.

`C=CC(=O)NCc1cn2c(C(F)(F)F)cnc2c(-c2ccc(C(F)(F)F)cc2)n1` [I-246, N-((3-(trifluoromethyl)-8-(4-(trifluoromethyl)phenyl)imidazo[1,2-a]pyrazin-6-yl)methyl)acrylamide] and `O=C(/C=C/CF)NCc1cn2ccnc2c(-c2ccc(C(F)(F)F)cc2)n1` [I-214, (E)-4-fluoro-N-((8-(4-(trifluoromethyl)phenyl)imidazo[1,2-a]pyrazin-6-yl)methyl)but-2-enamide] cannot be ordered by GI50: no more than 1000 nM for the first, no more than 1000 nM for the second.

`Cc1cc(-c2ccc(C(F)(F)F)cc2)nc2cc(C(=O)N[C@H](C)CO)ccc12` [I-261, (R)—N-(1-hydroxypropan-2-yl)-4-methyl-2-(4-(trifluoromethyl)phenyl)quinoline-7-carboxamide] and `O=C(O)c1ccc2c(OC(F)F)cc(-c3ccc(C(F)(F)F)cc3)nc2c1` [I-331, 4-(Difluoromethoxy)-2-(4-(trifluoromethyl)phenyl)quinoline-7-carboxylic acid] cannot be ordered by GI50: no more than 1000 nM for the first, no more than 1000 nM for the second.

`CC(C)(C)c1ccc(-c2nc3cc(NC(=O)CO)ccc3n3cccc23)cc1` [I-203, N-(4-(4-(tert-butyl)phenyl)pyrrolo[1,2-a]quinoxalin-7-yl)-2-hydroxyacetamide] and `CCC(=O)Nc1ccc2c(c1)nc(-c1ccc(C(C)(C)C)cc1)c1nccn12` [I-134, N-(4-(4-(tert-butyl)phenyl)imidazo[1,2-a]quinoxalin-7-yl)propionamide] fall in the same range of GI50: 1000 to 5000 nM for the first, 1000 to 5000 nM for the second.

`CC(C)(C)c1ccc(-c2nc3cc(C(N)=O)ccc3n3ccnc23)cc1` [I-73, 4-(4-(tert-Butyl)phenyl)imidazo[1,2-a]quinoxaline-7-carboxamide] and `CC(C)(C)c1ccc(-c2nc3cc(C(=O)O)ccc3n3ccc(F)c23)cc1` [I-115, 4-(4-(tert-Butyl)phenyl)-3-fluoropyrrolo[1,2-a]quinoxaline-7-carboxylic acid] cannot be ordered by GI50: 1000 to 5000 nM for the first, no more than 1000 nM for the second.

`O=C(O)c1ccc2c(c1)nc(N1CCC3(CC1)CC(F)(F)C3)c1cccn12` [I-32, 4-(2,2-Difluoro-7-azaspiro [3.5]nonan-7-yl) pyrrolo[1,2-a] quinoxaline-7-carboxylic acid] and `O=C(O)c1ccc2c(c1)nc(N1CCC3(CC1)CC3(F)F)c1cccn12` [I-36, 4-(1,1-Difluoro-6-azaspiro[2.5]octan-6-yl)pyrrolo[1,2-a]quinoxaline-7-carboxylic acid] cannot be ordered by GI50: 1000 to 5000 nM for the first, no more than 1000 nM for the second.

`CC(C)(C)c1ccc(-c2nc3cc(S(C)(=O)=O)ccc3n3cccc23)cc1` [I-323, 4-(4-(tert-butyl)phenyl)-7-(methylsulfonyl)pyrrolo[1,2-a]quinoxaline] and `CC(C)(C)c1ccc(-c2nc3cc(S(N)(=O)=O)ccc3n3cccc23)cc1` [I-311, 4-(4-(tert-butyl)phenyl)pyrrolo[1,2-a]quinoxaline-7-sulfonamide] fall in the same range of GI50: 1000 to 5000 nM for the first, 1000 to 5000 nM for the second.

`CC(C)(C)c1ccc(-c2nc(C(=O)O)cn3ccnc23)cc1` [I-147, 8-(4-(tert-Butyl)phenyl)imidazo[1,2-a]pyrazine-6-carboxylic acid] and `CC(C)(C)c1ccc(-c2nc(CCC(=O)O)cn3ccnc23)cc1` [I-153, 3-(8-(4-(tert-Butyl)phenyl)imidazo[1,2-a]pyrazin-6-yl)propanoic acid] cannot be ordered by GI50: greater than 10000 nM for the first, greater than 10000 nM for the second.

First: O=C(O)c1ccc2c(c1)nc(-c1ccc(C(F)(F)F)cc1C(F)(F)F)c1cccn12 [I-199, 4-(2,4-bis(trifluoromethyl)phenyl)pyrrolo[1,2-a]quinoxaline-7-carboxylic acid]
Second: O=C(O)c1ccc2c(c1)nc(N1CCC(c3ccccc3)CC1)c1cccn12 [I-13, 4-(4-Phenylpiperidin-1-yl)pyrrolo[1,2-a]quinoxaline-7-carboxylic acid]
The GI50 of the first is lower: 1000 to 5000 nM for the first, greater than 10000 nM for the second.

`C=CC(=O)NCc1cc(-c2ccc(C(F)(F)F)cc2)nn2ccnc12` [I-290, N-((6-(4-(trifluoromethyl)phenyl)imidazo[1,2-b]pyridazin-8-yl)methyl)acrylamide] and `C=CC(=O)NCc1nc(-c2ccc(C(F)(F)F)cc2)c2ccn(C)c2n1` [I-292, N-((7-methyl-4-(4-(trifluoromethyl)phenyl)-7H-pyrrolo[2,3-d]pyrimidin-2-yl)methyl)acrylamide] cannot be ordered by GI50: no more than 1000 nM for the first, no more than 1000 nM for the second.

`O=C(O)c1ccc2c(c1)nc(N1CCC(C(F)F)CC1)c1cccn12` [I-17, 4-(4-(Difluoromethyl)piperidin-1-yl)pyrrolo[1,2-a]quinoxaline-7-carboxylic acid] and `O=C(O)c1ccc2c(c1)nc(N1CCC3(CCC3)CC1)c1cccn12` [I-6, 4-(7-Azaspiro[3.5]nonan-7-yl)pyrrolo[1,2-a]quinoxaline-7-carboxylic acid] cannot be ordered by GI50: 1000 to 5000 nM for the first, no more than 1000 nM for the second.

`FC(F)(F)c1ccc(-c2nc(C3CC(Br)=NO3)cn3ccnc23)cc1` (stereo not drawn) [I-176, 3-bromo-5-(8-(4-(trifluoromethyl)phenyl)imidazo[1,2-a]pyrazin-6-yl)-4,5-dihydroisoxazole] and `C=C(F)C(=O)NCc1cn2ccnc2c(-c2ccc(C(F)(F)F)cc2)n1` [I-178, 2-Fluoro-N-((8-(4-(trifluoromethyl)phenyl)imidazo[1,2-a]pyrazin-6-yl)methyl)acrylamide] cannot be ordered by GI50: no more than 1000 nM for the first, no more than 1000 nM for the second.

Compared with `C=CC(=O)NCc1cn2ccnc2c(Oc2cccc(C(C)(C)C)c2)n1` [I-441, N-((8-(3-(tert-butyl)phenoxy)imidazo[1,2-a]pyrazin-6-yl)methyl)acrylamide], `CC(C)(C)c1ccc(-c2nc(CCc3nnn[nH]3)cn3ccnc23)cc1` [I-156, 6-(2-(1H-tetrazol-5-yl)ethyl)-8-(4-(tert-butyl)phenyl)imidazo[1,2-a]pyrazine] is higher in GI50: no more than 1000 nM for the first, greater than 10000 nM for the second.

First: O=C(O)c1ccc2c(c1)nc(N1CCC3(CCCC3)C1)c1cccn12 [I-9, 4-(2-Azaspiro[4.4]nonan-2-yl)pyrrolo[1,2-a]quinoxaline-7-carboxylic acid]
Second: O=C(O)c1ccc2c(c1)nc(N1CCC3(CCCC3)CC1)c1nccn12 [I-57, 4-(8-Azaspiro[4.5]decan-8-yl)imidazo[1,2-a]quinoxaline-7-carboxylic acid]
The GI50 of the first is lower: 1000 to 5000 nM for the first, greater than 10000 nM for the second.

`O=C(O)c1ccc2c(OCC3CC3)cc(-c3ccc(C(F)(F)F)cc3)nc2c1` [I-375, 4-(cyclopropylmethoxy)-2-(4-(trifluoromethyl)phenyl)quinoline-7-carboxylic acid] and `COc1cc(-c2ccc(C(F)(F)F)cc2)nc2cc(C(=O)NCCC(=O)C(F)(F)F)ccc12` [I-362, 4-Methoxy-N-(4,4,4-trifluoro-3-oxobutyl)-2-(4-(trifluoromethyl)phenyl)quinoline-7-carboxamide] cannot be ordered by GI50: no more than 1000 nM for the first, 1000 to 5000 nM for the second.

`COc1cc(-c2ccc(C(F)(F)F)cc2)nc2cc(NS(C)(=O)=O)ccc12` [I-383, N-(4-methoxy-2-(4-(trifluoromethyl)phenyl)quinolin-7-yl)methanesulfonamide] and `C=CC(=O)NCc1cc2ccc(F)cc2c(-c2ccc(C(F)(F)F)cc2)n1` [I-295, N-((7-fluoro-1-(4-(trifluoromethyl)phenyl)isoquinolin-3-yl)methyl)acrylamide] cannot be ordered by GI50: 1000 to 5000 nM for the first, no more than 1000 nM for the second.

`CC(C)(C)c1ccc(-c2nc(C(=O)O)cn3cnnc23)cc1` [I-93, 8-(4-(tert-Butyl)phenyl)-[1,2,4]triazolo[4,3-a]pyrazine-6-carboxylic acid] and `CC(C)(C)c1ccc(-c2cnc3ccc(C(=O)O)cc3n2)cc1` [I-157, 3-(4-(tert-Butyl)phenyl)quinoxaline-6-carboxylic acid] cannot be ordered by GI50: greater than 10000 nM for the first, greater than 10000 nM for the second.

In the case of `C=CC(=O)Nc1ccc2cnc(-c3ccc(C(C)(C)C)cc3)nc2c1` [I-80, N-(2-(4-(tert-butyl)phenyl)quinazolin-7-yl)acrylamide], the GI50 is reported as no more than 1000 nM.
